Results from patent US7601736B2, “Pyridine derivatives, a process for their preparation and a pharmaceutical composition containing the same” (SK Chemicals Co., Ltd., priority 2003, dated 2009).

Each compound was assayed on TNF-α (assay: Cytokine inhibitory activity in animal model (LPS-treated SD rats), plasma TNF-α). Settings: Rattus norvegicus, 2 h; SD rats, oral, LPS; 40 mg/kg; read-out: TNF-α Inhibition Rate (Conc.).
Format: in vivo, Sprague Dawley (SD) rats
Description: Sprague Dawley (SD) rats with body weights of about 180 to about 200 g were fasted (free drinking) and then tested. Test compounds were administered orally at 40 mg/kg and then abdominally administered with LPS 1 μg/mL after 1 hour. After 2 hours, the rats were sacrificed and bloods were collected from abdominal vein, stored at room temperature for about 2 hours, and then centrifuged at 12,000 rpm for about 2 minutes. Thus produced plasma was respectively collected and its TNF-α in each plasma was quantitated using mouse TNF-α ELISA kit based on the amount of recombinant TNF-α in rats. The plate used was coated with anti-rat TNF-α monoclone IgG antibodies. Likewise, for the test of IL-1α, IL-1α in each plasma was quantitated using the above plasma and mouse IL-1α ELISA kit based on the amount of recombinant IL-1α in rats. The plate used was coated with anti-rat IL-1α monoclone IgG antibodies. Further, for the test of IL-6, IL-6 in each plasma was quantitated using the above plasma and mouse IL-6 ELISA kit based on the amount of recombinant IL-6 in rats. Further, for the test of INF-γ, INF-γ in each plasma was quantitated using the above plasma and mouse INF-γ ELISA kit based on the amount of recombinant INF-γ in rats. The plate used was coated with anti-rat INF-γ monoclone IgG antibodies. From the above tests, inhibitory rates on the expression of each cytokine were obtained and they were compared to that of Indomethacin.
`Cc1cc2c(c(N3CCOCC3)n1)C(=O)OCC2` [Ex. 33, 6-methyl-8-morpholine-4-yl-3,4-dihydro-pyrano[3,4-c]pyridine-1-on] was tested, and the inhibition in vivo at 40 mg/kg was 90%. Compound `Cc1cc2c(c(N)n1)C(=O)OCC2` [Ex. 53, 8-amino-6-methyl-3,4-dihydro-pyrano[3,4-c]pyridine-1-on] has an inhibition in vivo at 40 mg/kg of 53%. In the case of `COc1nc(-c2ccccc2)cc2c1C(=O)OCC2` [Ex. 79, 8-methoxy-6-phenyl-3,4-dihydro-pyrano[3,4-c]pyridine-1-on], the inhibition in vivo at 40 mg/kg is reported as 78%. For `Cc1nc(-c2ccccc2)cc2c1C(=O)OCC2` [Ex. 77, 8-methyl-6-phenyl-3,4-dihydro-pyrano[3,4-c]pyridine-1-on], the inhibition in vivo at 40 mg/kg was 66%. `Cc1cc2c(c(N3CCCCC3)n1)C(=O)OCC2` [Ex. 32, 6-methyl-8-piperidine-1-yl-3,4-dihydro-pyrano[3,4-c]pyridine-1-on] gave an inhibition in vivo at 40 mg/kg of 74%.

Same assay, conditions: rat model; in words
For `Cc1cc2c(c(N3CCOCC3)n1)C(=O)OCC2` [Ex. 33, 6-methyl-8-morpholine-4-yl-3,4-dihydro-pyrano[3,4-c]pyridine-1-on], the “inhibitory activity on production of TNF-α compared to Indomethacin” value (shortened to “inhibitory activity … compared to Indomethacin”) was 1.5 or 2 times greater. `COc1nc(-c2ccccc2)cc2c1C(=O)OCC2` [Ex. 79, 8-methoxy-6-phenyl-3,4-dihydro-pyrano[3,4-c]pyridine-1-on] was tested, and the “inhibitory activity … compared to Indomethacin” value was 1.5 or 2 times greater. `Cc1cc2c(c(N3CCCCC3)n1)C(=O)OCC2` [Ex. 32, 6-methyl-8-piperidine-1-yl-3,4-dihydro-pyrano[3,4-c]pyridine-1-on] was tested, and the “inhibitory activity … compared to Indomethacin” value was 1.5 or 2 times greater.

What follows are compounds tested on TNF-α (assay: Cytokine inhibitory activity in cells: LPS-induced TNF-α in RAW 264.7). Settings: Mus musculus, RAW264.7; RAW 264.7, LPS 1 μg/mL; test conc. 1 μM; read-out: TNF-α Inhibition Rate (%).
Format: cell-based, murine
Description: General reagents used were purchased from Sigma-Aldrich chem. Co. and cytokine inhibitory activities were tested as follows. Mediums and reagents used in cell culture were purchased from GIBCO BRL (USA), and mouse TNF-α ELISA kit was purchased from R&D system (USA). The apparatus used ELISA reader (Spectra max-Plus 384, Molecular Device, USA).
Murine macrophage cell line RAW 264.7 was kindly provided by Korean Tissue Culture Center (KTCC). The cell line was cultured in DMEM medium containing 10% FBS, in a cell culturing device at the condition of 37° C., 5% CO2. First, murine RAW 264.7 was cultured in DMEM medium containing 10% FBS for about 24 hours, and cells were planted 200 μL each in 96 well plates at the concentration of 5×10^5/mL and cultured for about 24 hours. Then, test compounds were treated at various concentrations and then reacted at 37° C. for about 1 hour, wherein 1 μg/mL of lipopolysaccharide (LPS) was added thereto and reacted at 37° C. for about 12 hours. The supernatant was recovered and the amount of murine TNF-α on the medium was quantitated using ELISA kit. Thalidomide was respectively used as a positive and a negative control to compare the activities and the results are shown in the following tables 4a -4c.
`Cc1cc2c(c(N)n1)C(=O)OCC2` [Ex. 53, 8-amino-6-methyl-3,4-dihydro-pyrano[3,4-c]pyridine-1-on] showed an inhibition at 1 µM of 85%. Compound `COc1nc(-c2ccccc2)cc2c1C(=O)OCC2` [Ex. 79, 8-methoxy-6-phenyl-3,4-dihydro-pyrano[3,4-c]pyridine-1-on] has an inhibition at 1 µM of 76%. `Cc1nc(-c2ccccc2)cc2c1C(=O)OCC2` [Ex. 77, 8-methyl-6-phenyl-3,4-dihydro-pyrano[3,4-c]pyridine-1-on] was tested, and the inhibition at 1 µM was 68%. In the case of `Cc1cc2c(c(N3CCCCC3)n1)C(=O)OCC2` [Ex. 32, 6-methyl-8-piperidine-1-yl-3,4-dihydro-pyrano[3,4-c]pyridine-1-on], the inhibition at 1 µM is reported as 69%.

Same assay, conditions: Mus musculus, RAW264.7; RAW 264.7, LPS 1 μg/mL; test conc. 10 μM; read-out: TNF-α Inhibition Rate (%)
For `Cc1cc2c(c(N3CCOCC3)n1)C(=O)OCC2` [Ex. 33, 6-methyl-8-morpholine-4-yl-3,4-dihydro-pyrano[3,4-c]pyridine-1-on], the inhibition at 10 µM was 9%. Compound `Cc1cc2c(c(N)n1)C(=O)OCC2` [Ex. 53, 8-amino-6-methyl-3,4-dihydro-pyrano[3,4-c]pyridine-1-on] has an inhibition at 10 µM of 100%. `COc1nc(-c2ccccc2)cc2c1C(=O)OCC2` [Ex. 79, 8-methoxy-6-phenyl-3,4-dihydro-pyrano[3,4-c]pyridine-1-on] gave an inhibition at 10 µM of 8%. `Cc1nc(-c2ccccc2)cc2c1C(=O)OCC2` [Ex. 77, 8-methyl-6-phenyl-3,4-dihydro-pyrano[3,4-c]pyridine-1-on] showed an inhibition at 10 µM of 76%. `Cc1cc2c(c(N3CCCCC3)n1)C(=O)OCC2` [Ex. 32, 6-methyl-8-piperidine-1-yl-3,4-dihydro-pyrano[3,4-c]pyridine-1-on] showed an inhibition at 10 µM of 78%.

Same assay, conditions: Mus musculus, RAW264.7; RAW 264.7, LPS 1 μg/mL; test conc. 100 μM; read-out: TNF-α Inhibition Rate (%)
Compound `Cc1cc2c(c(N3CCOCC3)n1)C(=O)OCC2` [Ex. 33, 6-methyl-8-morpholine-4-yl-3,4-dihydro-pyrano[3,4-c]pyridine-1-on] has an inhibition at 100 µM of 18%. `Cc1cc2c(c(N)n1)C(=O)OCC2` [Ex. 53, 8-amino-6-methyl-3,4-dihydro-pyrano[3,4-c]pyridine-1-on] gave an inhibition at 100 µM of 100%. In the case of `COc1nc(-c2ccccc2)cc2c1C(=O)OCC2` [Ex. 79, 8-methoxy-6-phenyl-3,4-dihydro-pyrano[3,4-c]pyridine-1-on], the inhibition at 100 µM is reported as 94%. For `Cc1nc(-c2ccccc2)cc2c1C(=O)OCC2` [Ex. 77, 8-methyl-6-phenyl-3,4-dihydro-pyrano[3,4-c]pyridine-1-on], the inhibition at 100 µM was 89%. `Cc1cc2c(c(N3CCCCC3)n1)C(=O)OCC2` [Ex. 32, 6-methyl-8-piperidine-1-yl-3,4-dihydro-pyrano[3,4-c]pyridine-1-on] showed an inhibition at 100 µM of 89%.

Same assay, conditions: Mus musculus, RAW264.7; RAW 264.7, LPS 1 μg/mL; test conc. 1 mM; read-out: TNF-α Inhibition Rate (%)
Work on `Cc1cc2c(c(N3CCOCC3)n1)C(=O)OCC2` [Ex. 33, 6-methyl-8-morpholine-4-yl-3,4-dihydro-pyrano[3,4-c]pyridine-1-on] yielded an inhibition at 1000 µM of 29%. With `Cc1cc2c(c(N)n1)C(=O)OCC2` [Ex. 53, 8-amino-6-methyl-3,4-dihydro-pyrano[3,4-c]pyridine-1-on] the inhibition at 1000 µM was 100%. Work on `COc1nc(-c2ccccc2)cc2c1C(=O)OCC2` [Ex. 79, 8-methoxy-6-phenyl-3,4-dihydro-pyrano[3,4-c]pyridine-1-on] yielded an inhibition at 1000 µM of 100%. Compound `Cc1nc(-c2ccccc2)cc2c1C(=O)OCC2` [Ex. 77, 8-methyl-6-phenyl-3,4-dihydro-pyrano[3,4-c]pyridine-1-on] has an inhibition at 1000 µM of 100%. For `Cc1cc2c(c(N3CCCCC3)n1)C(=O)OCC2` [Ex. 32, 6-methyl-8-piperidine-1-yl-3,4-dihydro-pyrano[3,4-c]pyridine-1-on], the inhibition at 1000 µM was 100%.

Same assay, conditions: RAW 264.7; compared to the control compounds
For `Cc1cc2c(c(N)n1)C(=O)OCC2` [Ex. 53, 8-amino-6-methyl-3,4-dihydro-pyrano[3,4-c]pyridine-1-on], the “inhibitory activity in RAW 264.7 cell line on the production of TNF-α, in words” value (from here on “inhibitory activity … in words”) was “superiorities over to the control compounds”. `COc1nc(-c2ccccc2)cc2c1C(=O)OCC2` [Ex. 79, 8-methoxy-6-phenyl-3,4-dihydro-pyrano[3,4-c]pyridine-1-on] was tested, and the “inhibitory activity … in words” value was “superiorities over to the control compounds”. For `Cc1nc(-c2ccccc2)cc2c1C(=O)OCC2` [Ex. 77, 8-methyl-6-phenyl-3,4-dihydro-pyrano[3,4-c]pyridine-1-on], the “inhibitory activity … in words” value was “superiorities over to the control compounds”.
